In BindingDB's records for patent US10322118 (Dartmouth College, 2019) one finds IC50 data, which are given here for twelve compounds.

One experiment has as its target T1, Putative hydrolase (Pseudomonas aeruginosa (strain UCBPP-PA14), UniProt A0A0H2ZD27).
T1 sequence (A0A0H2ZD27 whole entry): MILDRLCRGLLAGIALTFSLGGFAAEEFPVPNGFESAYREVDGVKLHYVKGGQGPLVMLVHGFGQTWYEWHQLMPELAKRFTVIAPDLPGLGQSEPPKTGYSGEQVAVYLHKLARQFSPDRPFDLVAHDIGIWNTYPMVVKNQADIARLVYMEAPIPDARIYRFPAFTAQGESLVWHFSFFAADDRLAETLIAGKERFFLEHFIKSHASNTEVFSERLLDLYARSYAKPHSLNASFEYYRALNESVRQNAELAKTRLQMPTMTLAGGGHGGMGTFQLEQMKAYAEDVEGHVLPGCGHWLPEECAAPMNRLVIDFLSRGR
Description: Biochemical Characterization of Cif Inhibitors.

For experiment [1], the target named is T2, Bifunctional epoxide hydrolase 2 (Homo sapiens, UniProt P34913).
T2 sequence (P34913 whole entry): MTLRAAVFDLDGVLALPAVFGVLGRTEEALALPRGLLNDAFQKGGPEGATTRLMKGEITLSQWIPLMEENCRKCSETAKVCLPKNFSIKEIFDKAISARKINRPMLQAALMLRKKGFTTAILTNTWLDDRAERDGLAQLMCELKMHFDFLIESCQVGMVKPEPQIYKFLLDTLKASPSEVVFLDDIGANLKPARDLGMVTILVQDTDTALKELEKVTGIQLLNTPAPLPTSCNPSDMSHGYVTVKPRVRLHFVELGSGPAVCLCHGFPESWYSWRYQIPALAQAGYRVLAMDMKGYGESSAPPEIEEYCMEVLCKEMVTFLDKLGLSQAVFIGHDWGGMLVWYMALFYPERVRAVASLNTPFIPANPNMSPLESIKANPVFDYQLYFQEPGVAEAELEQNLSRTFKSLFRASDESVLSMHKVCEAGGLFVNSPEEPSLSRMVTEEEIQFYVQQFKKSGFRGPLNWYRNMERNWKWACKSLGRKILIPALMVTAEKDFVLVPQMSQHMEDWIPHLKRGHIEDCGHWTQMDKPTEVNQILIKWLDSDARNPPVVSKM
Description: Biochemical Characterization of Cif Inhibitors.

The IC50 is the concentration that gives 50% inhibition. The compound `Cc1cc(C)cc(NC(=O)NC(=O)c2c(F)cccc2F)c1` [US10322118, Urea-Based Scaffold Entry 3] yielded an IC50 against Putative hydrolase of 1.8 µM.
Same read-out and setting: next, `Cc1ccc(-c2cc(C(F)(F)F)nn2-c2ccc(S(N)(=O)=O)cc2)cc1` [US10322118, Urea-Based Scaffold Entry 9]: 7.4 µM.
Regarding `CCCCCCCCCCCCS(C)(=O)=O` [US10322118, Urea-Based Scaffold Entry 8], the midpoint of inhibition in experiment [1], the IC50, lay at 33.3 µM. That is a double-digit micromolar value.
Take `O=C(NC(=O)c1c(F)cccc1F)Nc1cc(Cl)cc(Cl)c1` [US10322118, Urea-Based Scaffold Entry 4]: the IC50 at Putative hydrolase was 1.5 µM.
Same read-out and setting: next, `O=C(O)Cc1cc(I)c(Oc2ccc(O)cc2)c(I)c1` [US10322118, Entry 3]: 100 µM; `Oc1ccc(Oc2ccccc2)cc1` [US10322118, Entry 9]: > 100 µM; `O=C(O)Cc1cc(I)c(Oc2cc(I)c(O)c(I)c2)c(I)c1` [US10322118, Entry 1]: 20 µM.
For `CCC(=O)Oc1ccc(NC(=O)NC23CC4CC(CC(C4)C2)C3)cc1` [US10322118, Urea-Based Scaffold Entry 1], the values for the IC50 (on Putative hydrolase; in experiment [1]) were > 100 µM and 0.0038 µM, respectively.
In the case of `Cc1cc(OCC(=O)O)cc(C)c1Cc1ccc(O)c(C(C)C)c1` [US10322118, Entry 7], at Putative hydrolase, the IC50 is > 100 µM.
Regarding `O=C(O)c1ccc(Oc2ccccc2)cc1` [US10322118, Entry 11], the IC50 against Putative hydrolase is > 100 µM.
Regarding `CN(C(=O)NC(=O)c1c(F)cccc1F)c1ccc(Cl)cc1` [US10322118, Urea-Based Scaffold Entry 7], the IC50 at Putative hydrolase is > 100 µM.
On the same count and under the same terms, the result for `Nc1ccc(Oc2ccccc2)cc1` [US10322118, Entry 10] reads > 100 µM.
